Assay results: ChEMBL document CHEMBL1141978, “Synthesis and antibacterial activities of 5-hydroxy-4-amino-2(5H)-furanones” (2005)
≈ marks a conversion by molar mass, not a printed value.

What was measured:
Pseudomonas aeruginosa [1] = assay: Zone of inhibition of Pseudomonas aeruginosa after treatment with 10 ug of the compound; format: functional, organism-based
Escherichia coli [2] = assay: Zone of inhibition of Escherichia coli after treatment with 10 ug of the compound; format: functional, organism-based
Staphylococcus aureus [3] = assay: Zone of inhibition of Staphylococcus aureus after treatment with 10 ug of the compound; format: functional, organism-based
Escherichia coli [4] = assay: Minimum […] concentration Escherichia coli ATCC 25922 strain was determined; format: functional
[5] = Minimum […] concentration in Enterobacter En3 strain was determined; format: functional
Staphylococcus aureus [6] = assay: Minimum inhibitory concentration in Staphylococcus aureus S1 strain was determined; format: functional
Pseudomonas aeruginosa [7] = assay: Zone of inhibition of Pseudomonas aeruginosa after treatment with the compound; format: functional
Acinetobacter sp. [8] = assay: Minimum […] concentration in Acinetobacter species A2 strain was determined; format: functional
[9] = Minimum […] concentration in Enterobacter En1 strain was determined; format: functional
Pseudomonas aeruginosa [10] = assay: Minimum […] concentration in Pseudomonas aeruginosa P7 strain was determined; format: functional
Acinetobacter sp. [11] = assay: Minimum inhibitory concentration in Acinetobacter species A1 strain was determined; format: functional
Klebsiella pneumoniae [12] = assay: Minimum […] concentration in Klebsiella pneumoniae K2 strain was determined; format: functional
Escherichia coli [13] = assay: Minimum inhibitory concentration in Escherichia coli E1 strain was determined; format: functional
Pseudomonas aeruginosa [14] = assay: Minimum […] concentration in Pseudomonas aeruginosa P12 strain was determined; format: functional
Staphylococcus aureus [15] = assay: Minimum inhibitory concentration in Staphylococcus aureus S2 strain was determined; format: functional
Pseudomonas aeruginosa [16] = assay: Minimum inhibitory concentration in Pseudomonas aeruginosa P7 strain was determined; format: functional
Pseudomonas aeruginosa [17] = assay: Minimum inhibitory concentration in Pseudomonas aeruginosa ATCC 27853 strain was determined; format: functional
Pseudomonas aeruginosa [18] = assay: Minimum inhibitory concentration in Pseudomonas aeruginosa P12 strain was determined; format: functional
Escherichia coli [19] = assay: Minimum […] concentration in Escherichia coli E1 strain was determined; format: functional
Staphylococcus aureus [20] = assay: Minimum inhibitory concentration in Staphylococcus aureus ATCC 25923 strian was determined; format: functional
Escherichia coli [21] = assay: Minimum inhibitory concentration in Escherichia coli E3 strain was determined; format: functional
Staphylococcus aureus [22] = assay: Minimum […] concentration in Staphylococcus aureus S1 strain was determined; format: functional
[23] = Minimum inhibitory concentration in Enterobacter En1 strain was determined; format: functional
Acinetobacter sp. [24] = assay: Minimum […] concentration in Acinetobacter species A1 strain was determined; format: functional
Acinetobacter sp. [25] = assay: Minimum inhibitory concentration in Acinetobacter species A2 strain was determined; format: functional
Staphylococcus aureus [26] = assay: Minimum […] concentration in Staphylococcus aureus S2 strain was determined; format: functional
Escherichia coli [27] = assay: Zone of inhibition of Escherichia coli after treatment with the compound; format: functional
Staphylococcus aureus [28] = assay: Minimum […] concentration in Staphylococcus aureus ATCC 25923 strain was determined; format: functional
Klebsiella pneumoniae [29] = assay: Minimum […] concentration in Klebsiella pneumoniae K1 strain was determined; format: functional
Staphylococcus aureus [30] = assay: Zone of inhibition of Staphylococcus aureus after treatment with compound; format: functional
[31] = Minimum inhibitory concentration in Enterobacter En3 strain was determined; format: functional
Klebsiella pneumoniae [32] = assay: Minimum inhibitory concentration in Klebsiella pneumoniae K2 strain was determined; format: functional
Escherichia coli [33] = assay: Minimum inhibitory concentration in Escherichia coli ATCC 25922 strain was determined; format: functional
Klebsiella pneumoniae [34] = assay: Minimum inhibitory concentration in Klebsiella pneumoniae K1 strain was determined; format: functional
Pseudomonas aeruginosa [35] = assay: Minimum […] concentration in Pseudomonas aeruginosa ATCC 27853 was determined; format: functional
Escherichia coli [36] = assay: Minimum […] concentration in Escherichia coli E3 strain was determined; format: functional
Staphylococcus aureus [37] = assay: Zone of inhibition of Staphylococcus aureus after treatment with the compound; format: functional
Staphylococcus aureus [38] = assay: Zone of inhibition of Staphylococcus aureus after treatment with the 30 ug of the compound; format: functional
Escherichia coli [39] = assay: Zone of inhibition of Escherichia coli after treatment with the 30 ug of the compound; format: functional
Pseudomonas aeruginosa [40] = assay: Zone of inhibition of Pseudomonas aeruginosa after treatment with the 30 ug of the compound; format: functional

| Compound | MBC (Escherichia coli [4]) | MBC [5] | MIC (Staphylococcus aureus [6]) | Inhibition (Pseudomonas aeruginosa [7]) | MBC (Acinetobacter sp. [8]) | MBC [9] | MBC (Pseudomonas aeruginosa [10]) | MIC (Acinetobacter sp. [11]) | MBC (Klebsiella pneumoniae [12]) | MIC (Escherichia coli [13]) | MBC (Pseudomonas aeruginosa [14]) | MIC (Staphylococcus aureus [15]) | MIC (Pseudomonas aeruginosa [16]) | MIC (Pseudomonas aeruginosa [17]) | MIC (Pseudomonas aeruginosa [18]) | MBC (Escherichia coli [19]) | MIC (Staphylococcus aureus [20]) | MIC (Escherichia coli [21]) | Inhibition (Escherichia coli [27]) | Inhibition (Staphylococcus aureus [30]) | other results |
| --- | --- | --- | --- | --- | --- | --- | --- | --- | --- | --- | --- | --- | --- | --- | --- | --- | --- | --- | --- | --- | --- |
| GENTAMICIN | – | – | – | – | – | – | – | – | – | – | – | – | – | – | – | – | – | – | – | – | Inhibition (Pseudomonas aeruginosa [1]): 0 mm; Inhibition (Escherichia coli [2]): 25 mm; Inhibition (Staphylococcus aureus [3]): 31 mm |
| OC1=C(Cl)/C(=N\Cc2ccccc2)C(O)O1 (stereo unspecified) | 16 µg/mL (≈ 66.8 µM) | 32 µg/mL (≈ 134 µM) | 16 µg/mL (≈ 66.8 µM) | 6 mm | 16 µg/mL (≈ 66.8 µM) | 16 µg/mL (≈ 66.8 µM) | 32 µg/mL (≈ 134 µM) | 4 µg/mL (≈ 16.7 µM) | 32 µg/mL (≈ 134 µM) | 16 µg/mL (≈ 66.8 µM) | 32 µg/mL (≈ 134 µM) | 32 µg/mL (≈ 134 µM) | 32 µg/mL (≈ 134 µM) | 32 µg/mL (≈ 134 µM) | 16 µg/mL (≈ 66.8 µM) | 16 µg/mL (≈ 66.8 µM) | 4 µg/mL (≈ 16.7 µM) | 16 µg/mL (≈ 66.8 µM) | 6 mm | 16 mm | MBC (Staphylococcus aureus [22]): 32 µg/mL (≈ 134 µM); MIC [23]: 8 µg/mL (≈ 33.4 µM); MBC (Acinetobacter sp. [24]): 8 µg/mL (≈ 33.4 µM); MIC (Acinetobacter sp. [25]): 8 µg/mL (≈ 33.4 µM); MBC (Staphylococcus aureus [26]): 32 µg/mL (≈ 134 µM); MBC (Staphylococcus aureus [28]): 8 µg/mL (≈ 33.4 µM); MBC (Klebsiella pneumoniae [29]): 32 µg/mL (≈ 134 µM); MIC [31]: 16 µg/mL (≈ 66.8 µM); MIC (Klebsiella pneumoniae [32]): 16 µg/mL (≈ 66.8 µM); MIC (Escherichia coli [33]): 8 µg/mL (≈ 33.4 µM); MIC (Klebsiella pneumoniae [34]): 32 µg/mL (≈ 134 µM); MBC (Pseudomonas aeruginosa [35]): 64 µg/mL (≈ 267 µM); MBC (Escherichia coli [36]): 32 µg/mL (≈ 134 µM) |
| C[S+](C)[O-] [DIMETHYL SULFOXIDE] | – | – | – | 0 mm | – | – | – | – | – | – | – | – | – | – | – | – | – | – | 0 mm | – | Inhibition (Staphylococcus aureus [37]): 0 mm |
| C/N=C1\C(Cl)=C(O)OC1O (stereo unspecified) | 32 µg/mL (≈ 196 µM) | 32 µg/mL (≈ 196 µM) | 16 µg/mL (≈ 97.8 µM) | 8 mm | 64 µg/mL (≈ 391 µM) | 64 µg/mL (≈ 391 µM) | 64 µg/mL (≈ 391 µM) | 8 µg/mL (≈ 48.9 µM) | 64 µg/mL (≈ 391 µM) | 32 µg/mL (≈ 196 µM) | 64 µg/mL (≈ 391 µM) | 4 µg/mL (≈ 24.5 µM) | 32 µg/mL (≈ 196 µM) | 16 µg/mL (≈ 97.8 µM) | 32 µg/mL (≈ 196 µM) | 32 µg/mL (≈ 196 µM) | 8 µg/mL (≈ 48.9 µM) | 64 µg/mL (≈ 391 µM) | 11 mm | 10 mm | MBC (Staphylococcus aureus [22]): 32 µg/mL (≈ 196 µM); MIC [23]: 32 µg/mL (≈ 196 µM); MBC (Acinetobacter sp. [24]): 16 µg/mL (≈ 97.8 µM); MIC (Acinetobacter sp. [25]): 64 µg/mL (≈ 391 µM); MBC (Staphylococcus aureus [26]): 8 µg/mL (≈ 48.9 µM); MBC (Staphylococcus aureus [28]): 16 µg/mL (≈ 97.8 µM); MBC (Klebsiella pneumoniae [29]): 32 µg/mL (≈ 196 µM); MIC [31]: 32 µg/mL (≈ 196 µM); MIC (Klebsiella pneumoniae [32]): 32 µg/mL (≈ 196 µM); MIC (Escherichia coli [33]): 16 µg/mL (≈ 97.8 µM); MIC (Klebsiella pneumoniae [34]): 16 µg/mL (≈ 97.8 µM); MBC (Pseudomonas aeruginosa [35]): 32 µg/mL (≈ 196 µM); MBC (Escherichia coli [36]): 64 µg/mL (≈ 391 µM) |
| O=C(N[C@H](CO)[C@H](O)c1ccc([N+](=O)[O-])cc1)C(Cl)Cl [CHLORAMPHENICOL] | – | – | – | – | – | – | – | – | – | – | – | – | – | – | – | – | – | – | – | – | Inhibition (Staphylococcus aureus [38]): 0 mm; Inhibition (Escherichia coli [39]): 15 mm; Inhibition (Pseudomonas aeruginosa [40]): 0 mm |
| C/N=C1\C(Br)=C(O)OC1O (stereo unspecified) | – | – | – | 7 mm | – | – | – | – | – | – | – | – | – | – | – | – | – | – | 9 mm | 16 mm | – |
| N=C1C(Cl)=C(O)OC1O (stereo unspecified) | 128 µg/mL (≈ 856 µM) | 64 µg/mL (≈ 428 µM) | 16 µg/mL (≈ 107 µM) | 8 mm | 64 µg/mL (≈ 428 µM) | 64 µg/mL (≈ 428 µM) | 64 µg/mL (≈ 428 µM) | 16 µg/mL (≈ 107 µM) | 128 µg/mL (≈ 856 µM) | 32 µg/mL (≈ 214 µM) | 128 µg/mL (≈ 856 µM) | 4 µg/mL (≈ 26.7 µM) | 32 µg/mL (≈ 214 µM) | 32 µg/mL (≈ 214 µM) | 64 µg/mL (≈ 428 µM) | 64 µg/mL (≈ 428 µM) | 16 µg/mL (≈ 107 µM) | 64 µg/mL (≈ 428 µM) | 8 mm | 16 mm | MBC (Staphylococcus aureus [22]): 16 µg/mL (≈ 107 µM); MIC [23]: 64 µg/mL (≈ 428 µM); MBC (Acinetobacter sp. [24]): 32 µg/mL (≈ 214 µM); MIC (Acinetobacter sp. [25]): 32 µg/mL (≈ 214 µM); MBC (Staphylococcus aureus [26]): 8 µg/mL (≈ 53.5 µM); MBC (Staphylococcus aureus [28]): 32 µg/mL (≈ 214 µM); MBC (Klebsiella pneumoniae [29]): 64 µg/mL (≈ 428 µM); MIC [31]: 64 µg/mL (≈ 428 µM); MIC (Klebsiella pneumoniae [32]): 128 µg/mL (≈ 856 µM); MIC (Escherichia coli [33]): 64 µg/mL (≈ 428 µM); MIC (Klebsiella pneumoniae [34]): 32 µg/mL (≈ 214 µM); MBC (Pseudomonas aeruginosa [35]): 64 µg/mL (≈ 428 µM); MBC (Escherichia coli [36]): 128 µg/mL (≈ 856 µM) |
